Assays:
DLD1 NRF2-WT [1] = conditions: 72 h; CellTiter-Glo viability
Procedure, shortened: (§1)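 Library compounds were tested in 384-well plates at 5 concentrations covering a 10,000-fold span against isogenic DLD1 colorectal cancer cells, NRF2 wild-type or CRISPR gain-of-function, grown in DMEM with 10% FBS. Viability was measured at 72 h with CellTiter-Glo on a Pherastar FS reader, relative to vehicle wells and 100-μM positive-control wells. EC50 and drug sensitivity score (normalised area under the curve) were derived from logistic dose-response curves fitted with four parameters.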

DLD1 NRF2-GOF [2] = conditions: 72 h; CellTiter-Glo viability
Procedure, shortened: as §1

DLD1 NRF2-WT [3] = assay: drug sensitivity score (DSS) cytotoxicity (DSS score); higher = more toxic; extreme values may be limits of the assay; conditions: 72 h; CellTox Green cytotoxicity
Procedure, shortened: (§2)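 TC50 and drug sensitivity score, a normalised area under the curve, were derived by logistic dose-response fits of cytotoxicity. The cells were an isogenic DLD1 colorectal cancer pair, NRF2 wild-type or CRISPR-edited, kept in DMEM with 10% FBS. Compounds were tested in 384-well plates at 5 concentrations across a 10,000-fold range for 72 h. Readings with CellTox Green on a Pherastar FS reader were normalised to vehicle wells and 100-μM positive-control wells.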

DLD1 NRF2-GOF [4] = assay: as above; conditions: 72 h; CellTox Green cytotoxicity
Procedure, shortened: as §2

DLD1 NRF2-WT [5] = assay: drug sensitivity score (DSS) viability (DSS score); higher = more sensitive; extreme values may be limits of the assay; conditions: 72 h; CellTiter-Glo viability
Procedure, shortened: as §1

DLD1 NRF2-GOF [6] = assay: as above; conditions: 72 h; CellTiter-Glo viability
Procedure, shortened: as §1

DLD1 NRF2-WT [7] = assay: TC50 cytotoxicity; higher = less toxic; conditions: 72 h; CellTox Green cytotoxicity
Procedure, shortened: as §2

DLD1 NRF2-GOF [8] = assay: TC50 cytotoxicity; higher = less toxic; conditions: 72 h; CellTox Green cytotoxicity
Procedure, shortened: as §2

Structure (SMILES)	EC50 viability (DLD1 NRF2-WT [1]) [nM]	EC50 viability (DLD1 NRF2-GOF [2]) [nM]	drug sensitivity score (DLD1 NRF2-WT [3])	drug sensitivity score (DLD1 NRF2-GOF [4])	drug sensitivity score (DLD1 NRF2-WT [5])	drug sensitivity score (DLD1 NRF2-GOF [6])	TC50 cytotoxicity (DLD1 NRF2-WT [7]) [nM]	TC50 cytotoxicity (DLD1 NRF2-GOF [8]) [nM]
COc1cc2c(Oc3ccc(NC(=O)C4(C(=O)Nc5ccc(F)cc5)CC4)cc3F)ccnc2cc1OCCCN1CCOCC1 [Foretinib]	414	361	3.2	6.3	2.1	3.3	280	267
FC(F)(F)c1ccc(CNc2ccc(Cc3c[nH]c4ncc(Cl)cc34)cn2)cn1 [Pexidartinib]	> 10000	> 10000	0	0	0	0.9	> 10000	> 10000
CCC/C=C/C=C/C(=O)O[C@H]1/C(=C/C(=O)OC)C[C@H]2C[C@H]([C@@H](C)O)OC(=O)C[C@H](O)C[C@@H]3C[C@H](OC(C)=O)C(C)(C)[C@](O)(C[C@@H]4C/C(=C/C(=O)OC)C[C@H](/C=C/C(C)(C)[C@]1(O)O2)O4)O3 [Bryostatin 1]	> 100	> 100	0	0	0.2	2.8	> 100	> 100
C[C@@]1(C(=O)Nc2ccc(F)nc2)CCCN1c1nc(Nc2cc(C3CC3)n[nH]2)c2cccn2n1	252	279	6.3	11	13	14.8	326	319
CN(C)C[C@@H]1CCn2cc(c3ccccc32)C2=C(C(=O)NC2=O)c2cn(c3ccccc23)CCO1 [Ruboxistaurin]	2080	2000	0	0.2	5.1	5	> 10000	> 10000
CN[C@@H](C)C(=O)N[C@H](C(=O)N1CCC[C@H]1c1nc(C(=O)c2ccc(F)cc2)cs1)C1CCCCC1 [NVP-LCL161]	> 25000	2360	0	0	2.1	4.8	> 25000	> 25000
CCNC(=O)c1noc(-c2cc(C(C)C)c(O)cc2O)c1-c1ccc(CN2CCOCC2)cc1 [Luminespib]	12.1	12.8	0	0	22	21.4	> 1000	> 1000
O=C(/C=C/c1cccnc1)NCCCCC1CCN(C(=O)c2ccccc2)CC1 [Daporinad]	4	4.9	0	0	27.6	25.9	> 1000	> 1000
O=C(Nc1nc2cccc(-c3ccc(CN4CCS(=O)(=O)CC4)cc3)n2n1)C1CC1 [Filgotinib]	2090	790	0	0.8	6.7	11.7	> 10000	> 10000
NC(=O)Nc1cc(-c2cccc(F)c2)sc1C(=O)N[C@H]1CCCNC1 [AZD7762]	175	106	2.2	1.7	5.3	7.6	247	362
COc1ccc(-c2ccc3c(N4CCOC[C@@H]4C)nc(N4CCOC[C@@H]4C)nc3n2)cc1CO [AZD8055]	75.1	103	0	0	19.1	17.4	> 10000	> 10000
O=C(O)c1ccc(-c2c[nH]c3ncc(-c4ccccc4)cc23)cc1C1CCCC1	38.1	908	0.4	2	12.1	6.6	> 10000	3470
O=C1CCc2c(Oc3ccc4c(c3)[C@@H]3[C@H](O4)[C@H]3c3nc4cc(C(F)(F)F)ccc4[nH]3)ccnc2N1 [BGB-283]	1620	4130	0	0	5	1.5	> 10000	> 10000
COc1c(OCCCN2CCOCC2)ccc2c1N=C(NC(=O)c1cnc(N)nc1)N1CCN=C21 [Copanlisib]	66.4	199	0.8	0	8.1	2.9	> 1000	> 1000
Oc1ccc2c(c1)CC[C@H](c1ccccc1)[C@@H]2c1ccc(OCCN2CCCC2)cc1 [Lasofoxifene]	> 1000	> 1000	0	0	0	0	> 1000	> 1000
CN1CCC(COc2cnc(-c3cccc(Cn4nc(-c5cccc(C#N)c5)ccc4=O)c3)nc2)CC1 [Tepotinib]	> 1000	> 1000	0	0	0	0	> 1000	> 1000
CCCS(=O)(=O)Nc1ccc(F)c(C(=O)c2c[nH]c3ncc(-c4ccc(Cl)cc4)cc23)c1F [Vemurafenib]	> 10000	> 10000	0	0	0.2	0	> 10000	> 10000
CNC(=O)c1cc(Oc2ccc(NC(=O)Nc3ccc(Cl)c(C(F)(F)F)c3)c(F)c2)ccn1 [Regorafenib]	3300	3710	0	0	3.8	2.4	> 10000	> 10000
N#CCNC(=O)c1ccc(-c2ccnc(Nc3ccc(N4CCOCC4)cc3)n2)cc1 [Momelotinib]	2800	3250	0.2	0.1	4.1	2.8	> 10000	> 10000
C[C@H]1C=C2C(=O)O[C@H]3CC[C@@H](C1)[C@@]23O [Galiellalactone]	> 25000	414	0	0	2.8	5.1	> 25000	> 25000
C=CC(=O)Nc1cc(Nc2nccc(-c3cn(C)c4ccccc34)n2)c(OC)cc1N(C)CCN(C)C [Osimertinib]	424	402	0.7	0	6.6	4.7	> 2500	> 2500

Structure (SMILES)	EC50 viability (DLD1 NRF2-WT [1]) [nM]	EC50 viability (DLD1 NRF2-GOF [2]) [nM]	drug sensitivity score (DLD1 NRF2-WT [3])	drug sensitivity score (DLD1 NRF2-GOF [4])	drug sensitivity score (DLD1 NRF2-WT [5])	drug sensitivity score (DLD1 NRF2-GOF [6])	TC50 cytotoxicity (DLD1 NRF2-WT [7]) [nM]	TC50 cytotoxicity (DLD1 NRF2-GOF [8]) [nM]
NC[C@@](O)(c1ccc(Cl)cc1)c1ccc(-c2cn[nH]c2)cc1	1	435	0	0	10.8	10.6	> 10000	> 10000
Cc1ncc(Cl)cc1NCc1ccc(C(=O)N[C@@H](CC2CCCC2)C(=O)NC2CC2)s1	401	> 5000	0	0	4	0	> 5000	> 5000
CC#CC(=O)N1CCC[C@H]1c1nc(-c2ccc(C(=O)Nc3ccccn3)cc2)c2c(N)nccn12 [Acalabrutinib]	284	110	0	0	1.7	4	> 1000	> 1000
CC(O)c1cc(C(=O)N[C@@H](C)Cn2ccc(-c3ccc(C#N)c(Cl)c3)n2)n[nH]1 (stereo partly specified) [ODM-201]	> 2500	> 2500	0	0	0.2	0.9	> 2500	> 2500
Nc1ncn([C@@H]2O[C@H](CO)[C@@H](O)[C@H]2O)c(=O)n1 [Azacitidine]	4010	1380	0	0	1	3.3	> 10000	> 10000
Cc1cc(-c2nc(-c3ccc(OC(F)(F)F)cc3)no2)nn1Cc1ccnc(N2CCN(C3CC3)CC2)c1 [BAY 87-2243]	0.9	> 1000	0	0	16.2	1.7	> 1000	> 1000
CN(c1ncccc1CNc1nc(Nc2ccc3c(c2)CC(=O)N3)ncc1C(F)(F)F)S(C)(=O)=O	2290	3700	0	0	6.7	4.1	> 10000	> 10000
CS(=O)(=O)N1CCN(Cc2cc3nc(-c4cccc5[nH]ncc45)nc(N4CCOCC4)c3s2)CC1 [Pictilisib]	1000	1590	0.1	0	6.8	5.8	> 10000	> 10000
NS(=O)(=O)NCCNc1nonc1/C(=N/O)Nc1ccc(F)c(Br)c1 [Epacadostat]	1670	1750	0	0	3.8	3.2	> 10000	> 10000
Clc1ccc(C(c2ccccc2Cl)C(Cl)Cl)cc1 (stereo unspecified) [Mitotane]	> 10000	> 10000	0	0	0	1.8	> 10000	> 10000
CCOc1cc2ncc(C#N)c(Nc3ccc(OCc4ccccn4)c(Cl)c3)c2cc1NC(=O)/C=C/CN(C)C [Neratinib]	102	305	0	0	5.7	2.2	> 1000	> 1000
CCn1c(=O)c(-c2ccc(Cl)cc2Cl)cc2cnc(Nc3ccc(N4CCNCC4)c(F)c3)nc21 [FRAX486]	250	626	0	0	9.8	7.1	> 5000	> 5000
Cc1cc([C@@H](C)Nc2ccccc2C(=O)O)c2nc(N3CCOCC3)cc(=O)n2c1 [AZD-6482]	> 2500	> 2500	0	0	0.1	0	> 2500	> 2500
CC(C)[C@H]1C(=O)N[C@@H](CCCNC(=N)N)C(=O)NCC(=O)N[C@@H](CC(=O)O)C(=O)N[C@H](Cc2ccccc2)C(=O)N1C [Cilengitide]	> 10000	315	0	0	0	3.9	> 10000	> 10000
Cn1cc(C[C@@H](N)C(=O)O)c2ccccc21 [1-methyl-D-tryptophan]	874	552	0	0	2.3	3.2	> 5000	> 5000
CNC(=O)c1cccc(-c2ccc3c(N4CCOC[C@@H]4C)nc(N4CCOC[C@@H]4C)nc3n2)c1 [Vistusertib]	371	675	0	0	11.9	9.9	> 10000	> 10000
COc1cc2nccc(Oc3ccc(NC(=O)C4(C(=O)Nc5ccc(F)cc5)CC4)cc3)c2cc1OC [Cabozantinib]	> 1000	> 1000	0	0	0	1.1	> 1000	> 1000
CCOC(=O)CCNc1cc(N2CCc3ccccc3CC2)nc(-c2ccccn2)n1 [GSK-J4]	2950	3550	0	7.8	17	16.4	> 100000	2800
C=CC(=O)Nc1cc2c(Nc3ccc(F)c(Cl)c3)ncnc2cc1OCCCN1CCOCC1 [Canertinib]	1970	2520	7.1	5.5	8.1	6.8	2390	3210
C[C@]1(O)C[C@@H](c2nc(-c3ccc4ccc(-c5ccccc5)nc4c3)c3c(N)nccn32)C1 [Linsitinib]	> 10000	> 10000	0	0	0	0	> 10000	> 10000
FC(F)c1nc2ccccc2n1-c1nc(N2CCOCC2)nc(N2CCOCC2)n1 [ZSTK474]	120	180	0	0	11.4	6.2	> 10000	> 10000

Reference: the supplement of paper PMC7600603
